Assay results taken from ChEMBL document CHEMBL1909046, “DrugMatrix in vitro pharmacology data”.

Key:
[1] = biological target: Voltage-gated inwardly rectifying potassium channel KCNH2 (Homo sapiens, UniProt Q12809); details: hek293; note: in other assays of this panel Not Active means under 50% inhibition at 10 µM
[2] = DRUGMATRIX: Potassium Channel [KATP] radioligand binding (ligand: [3H] Glyburide); assay type: cell membranes, Membrane; details: hit-t15; Not Active = under 50% inhibition at 10 µM
[3] = biological target: T1, Glucocorticoid receptor (Homo sapiens, UniProt P04150); details: hela s3; note: in other assays of this panel Not Active means under 50% inhibition at 10 µM
T1 sequence (P04150 whole entry): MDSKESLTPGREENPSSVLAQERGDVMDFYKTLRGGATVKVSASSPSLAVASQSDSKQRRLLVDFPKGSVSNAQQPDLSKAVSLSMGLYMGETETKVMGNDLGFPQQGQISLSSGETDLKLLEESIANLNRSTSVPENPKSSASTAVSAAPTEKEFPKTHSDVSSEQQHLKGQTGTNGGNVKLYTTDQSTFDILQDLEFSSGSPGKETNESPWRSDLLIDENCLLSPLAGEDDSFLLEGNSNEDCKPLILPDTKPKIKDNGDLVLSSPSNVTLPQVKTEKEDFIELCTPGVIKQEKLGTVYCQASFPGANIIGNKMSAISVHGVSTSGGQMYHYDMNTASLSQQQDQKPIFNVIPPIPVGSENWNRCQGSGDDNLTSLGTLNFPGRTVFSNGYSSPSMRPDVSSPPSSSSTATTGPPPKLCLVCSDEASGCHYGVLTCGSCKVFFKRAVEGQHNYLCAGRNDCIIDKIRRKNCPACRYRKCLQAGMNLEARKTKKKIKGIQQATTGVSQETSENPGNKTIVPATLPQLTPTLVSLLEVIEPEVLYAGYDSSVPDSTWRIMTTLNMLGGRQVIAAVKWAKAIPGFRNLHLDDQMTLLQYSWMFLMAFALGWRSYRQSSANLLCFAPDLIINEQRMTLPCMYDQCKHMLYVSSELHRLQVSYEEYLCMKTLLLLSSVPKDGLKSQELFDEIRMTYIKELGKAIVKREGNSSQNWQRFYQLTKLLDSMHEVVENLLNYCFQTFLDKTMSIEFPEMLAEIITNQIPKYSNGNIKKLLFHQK

[4] = biological target: 5-hydroxytryptamine receptor 2B (Homo sapiens, UniProt P41595); assay type: cell membranes, CHO-K1, Membrane; details: cho-k1; note: in other assays of this panel Not Active means under 50% inhibition at 10 µM
[5] = biological target: T2, Muscarinic acetylcholine receptor M5 (Homo sapiens, UniProt P08912); assay type: cell membranes, CHO-K1, Membrane; details: cho-k1; note: in other assays of this panel Not Active means under 50% inhibition at 10 µM
T2 sequence (P08912 whole entry): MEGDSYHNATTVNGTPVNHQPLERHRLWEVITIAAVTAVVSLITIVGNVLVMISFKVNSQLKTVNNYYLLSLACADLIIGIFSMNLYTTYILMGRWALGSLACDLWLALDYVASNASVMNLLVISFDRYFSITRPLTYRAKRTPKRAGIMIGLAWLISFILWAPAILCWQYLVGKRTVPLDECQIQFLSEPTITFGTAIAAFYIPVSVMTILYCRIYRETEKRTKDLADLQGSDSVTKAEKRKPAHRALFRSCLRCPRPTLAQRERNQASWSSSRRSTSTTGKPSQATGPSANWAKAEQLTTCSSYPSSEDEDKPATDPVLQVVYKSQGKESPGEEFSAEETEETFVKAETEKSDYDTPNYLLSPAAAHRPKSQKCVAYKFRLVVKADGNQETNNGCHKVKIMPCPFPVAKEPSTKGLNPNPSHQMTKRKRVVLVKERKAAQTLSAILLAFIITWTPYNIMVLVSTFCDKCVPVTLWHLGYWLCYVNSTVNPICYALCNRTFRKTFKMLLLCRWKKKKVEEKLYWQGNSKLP

[6] = biological target: T3, Estrogen receptor (Homo sapiens, UniProt P03372); details: sf9; note: in other assays of this panel Not Active means under 50% inhibition at 10 µM
T3 sequence (P03372 whole entry): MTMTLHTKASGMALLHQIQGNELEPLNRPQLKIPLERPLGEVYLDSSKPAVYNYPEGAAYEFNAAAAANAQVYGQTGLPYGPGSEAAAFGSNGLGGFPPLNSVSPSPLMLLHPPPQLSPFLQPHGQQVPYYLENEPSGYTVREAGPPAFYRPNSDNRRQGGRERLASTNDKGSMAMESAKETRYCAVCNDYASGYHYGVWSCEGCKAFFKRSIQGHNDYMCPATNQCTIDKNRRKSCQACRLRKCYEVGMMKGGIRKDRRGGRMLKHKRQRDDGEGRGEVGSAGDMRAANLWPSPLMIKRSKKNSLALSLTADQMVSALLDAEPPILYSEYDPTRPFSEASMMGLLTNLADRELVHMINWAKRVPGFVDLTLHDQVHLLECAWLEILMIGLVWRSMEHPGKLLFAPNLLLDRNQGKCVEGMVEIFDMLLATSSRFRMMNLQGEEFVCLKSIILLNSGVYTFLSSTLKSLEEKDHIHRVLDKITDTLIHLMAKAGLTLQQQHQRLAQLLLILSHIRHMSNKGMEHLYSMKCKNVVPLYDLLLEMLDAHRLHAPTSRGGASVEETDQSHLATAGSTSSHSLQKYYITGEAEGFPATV

[7] = DRUGMATRIX: GABAA, Flunitrazepam, Central radioligand binding (ligand: [3H] Flunitrazepam); assay type: cell membranes, Rattus norvegicus, Wistar, Brain, Membrane; details: Not Active = under 50% inhibition at 10 µM
[8] = DRUGMATRIX: Glutamate, NMDA, Agonism radioligand binding (ligand: [3H] CGP-39653); assay type: cell membranes, Rattus norvegicus, Wistar, Cerebral cortex, Membrane; details: Not Active = under 50% inhibition at 10 µM
[9] = biological target: Nitric oxide synthase 1 (Rattus norvegicus, UniProt P29476); assay type: tissue-based, Cerebellum; note: in other assays of this panel Not Active means under 50% inhibition at 10 µM
[10] = biological target: Cytochrome P450 2C19 (Homo sapiens, UniProt P33261); details: bti-tn-5b1-4; note: in other assays of this panel Not Active means under 50% inhibition at 10 µM
[11] = biological target: Cytochrome P450 2D6 (Homo sapiens, UniProt P10635); details: bti-tn-5b1-4; note: in other assays of this panel Not Active means under 50% inhibition at 10 µM
[12] = biological target: Cytochrome P450 3A4 (Homo sapiens, UniProt P08684); details: bti-tn-5b1-4; note: in other assays of this panel Not Active means under 50% inhibition at 10 µM
[13] = biological target: Estrogen receptor beta (Homo sapiens, UniProt Q92731); details: sf9; note: in other assays of this panel Not Active means under 50% inhibition at 10 µM
[14] = biological target: Sodium-dependent noradrenaline transporter (Homo sapiens, UniProt P23975); experiment: DRUGMATRIX: Norepinephrine Transporter radioligand binding (ligand: [125I] RTI-55); assay type: cell membranes, MDCK, Membrane; details: mdck, Not Active = under 50% inhibition at 10 µM

Chain of 5-hydroxytryptamine receptor 2B (P41595 whole entry): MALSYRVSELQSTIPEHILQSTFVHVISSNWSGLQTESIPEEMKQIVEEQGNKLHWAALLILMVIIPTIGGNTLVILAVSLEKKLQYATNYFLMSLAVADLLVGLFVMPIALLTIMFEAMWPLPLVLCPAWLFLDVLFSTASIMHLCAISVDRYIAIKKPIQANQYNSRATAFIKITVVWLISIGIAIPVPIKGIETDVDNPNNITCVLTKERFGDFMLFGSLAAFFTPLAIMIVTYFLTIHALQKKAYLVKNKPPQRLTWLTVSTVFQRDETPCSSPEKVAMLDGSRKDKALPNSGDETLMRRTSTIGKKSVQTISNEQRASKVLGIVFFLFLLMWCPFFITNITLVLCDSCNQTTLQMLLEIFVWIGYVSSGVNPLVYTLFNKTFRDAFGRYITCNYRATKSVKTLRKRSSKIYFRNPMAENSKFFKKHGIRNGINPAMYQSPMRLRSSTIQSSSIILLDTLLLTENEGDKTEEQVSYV
Chain of Cytochrome P450 2C19 (P33261 whole entry): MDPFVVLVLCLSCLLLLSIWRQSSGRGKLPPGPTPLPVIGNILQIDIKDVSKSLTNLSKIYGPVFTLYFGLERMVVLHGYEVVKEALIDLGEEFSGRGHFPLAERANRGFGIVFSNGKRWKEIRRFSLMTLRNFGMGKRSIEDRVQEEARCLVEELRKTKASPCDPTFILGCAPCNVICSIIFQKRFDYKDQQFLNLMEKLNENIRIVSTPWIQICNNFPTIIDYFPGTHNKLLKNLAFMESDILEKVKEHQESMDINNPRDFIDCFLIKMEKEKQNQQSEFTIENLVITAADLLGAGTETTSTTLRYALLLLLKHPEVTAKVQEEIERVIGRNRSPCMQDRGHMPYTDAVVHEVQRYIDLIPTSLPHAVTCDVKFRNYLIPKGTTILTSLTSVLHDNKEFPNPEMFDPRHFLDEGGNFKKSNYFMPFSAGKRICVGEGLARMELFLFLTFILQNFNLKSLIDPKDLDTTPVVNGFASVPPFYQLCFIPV
Chain of Cytochrome P450 2D6 (P10635 whole entry): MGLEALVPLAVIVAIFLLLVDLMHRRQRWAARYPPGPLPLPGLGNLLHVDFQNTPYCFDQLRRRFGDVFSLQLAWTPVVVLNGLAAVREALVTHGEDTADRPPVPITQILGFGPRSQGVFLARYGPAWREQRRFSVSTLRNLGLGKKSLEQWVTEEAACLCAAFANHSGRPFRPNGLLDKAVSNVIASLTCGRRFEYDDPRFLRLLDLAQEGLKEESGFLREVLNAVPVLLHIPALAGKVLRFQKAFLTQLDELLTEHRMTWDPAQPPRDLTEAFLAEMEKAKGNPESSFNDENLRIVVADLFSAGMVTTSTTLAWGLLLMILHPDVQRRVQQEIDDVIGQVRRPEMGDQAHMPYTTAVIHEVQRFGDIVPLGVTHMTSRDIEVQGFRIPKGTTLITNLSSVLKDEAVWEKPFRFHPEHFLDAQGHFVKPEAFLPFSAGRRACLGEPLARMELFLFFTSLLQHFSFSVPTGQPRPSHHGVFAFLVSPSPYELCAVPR
Chain of Nitric oxide synthase 1 (P29476 whole entry): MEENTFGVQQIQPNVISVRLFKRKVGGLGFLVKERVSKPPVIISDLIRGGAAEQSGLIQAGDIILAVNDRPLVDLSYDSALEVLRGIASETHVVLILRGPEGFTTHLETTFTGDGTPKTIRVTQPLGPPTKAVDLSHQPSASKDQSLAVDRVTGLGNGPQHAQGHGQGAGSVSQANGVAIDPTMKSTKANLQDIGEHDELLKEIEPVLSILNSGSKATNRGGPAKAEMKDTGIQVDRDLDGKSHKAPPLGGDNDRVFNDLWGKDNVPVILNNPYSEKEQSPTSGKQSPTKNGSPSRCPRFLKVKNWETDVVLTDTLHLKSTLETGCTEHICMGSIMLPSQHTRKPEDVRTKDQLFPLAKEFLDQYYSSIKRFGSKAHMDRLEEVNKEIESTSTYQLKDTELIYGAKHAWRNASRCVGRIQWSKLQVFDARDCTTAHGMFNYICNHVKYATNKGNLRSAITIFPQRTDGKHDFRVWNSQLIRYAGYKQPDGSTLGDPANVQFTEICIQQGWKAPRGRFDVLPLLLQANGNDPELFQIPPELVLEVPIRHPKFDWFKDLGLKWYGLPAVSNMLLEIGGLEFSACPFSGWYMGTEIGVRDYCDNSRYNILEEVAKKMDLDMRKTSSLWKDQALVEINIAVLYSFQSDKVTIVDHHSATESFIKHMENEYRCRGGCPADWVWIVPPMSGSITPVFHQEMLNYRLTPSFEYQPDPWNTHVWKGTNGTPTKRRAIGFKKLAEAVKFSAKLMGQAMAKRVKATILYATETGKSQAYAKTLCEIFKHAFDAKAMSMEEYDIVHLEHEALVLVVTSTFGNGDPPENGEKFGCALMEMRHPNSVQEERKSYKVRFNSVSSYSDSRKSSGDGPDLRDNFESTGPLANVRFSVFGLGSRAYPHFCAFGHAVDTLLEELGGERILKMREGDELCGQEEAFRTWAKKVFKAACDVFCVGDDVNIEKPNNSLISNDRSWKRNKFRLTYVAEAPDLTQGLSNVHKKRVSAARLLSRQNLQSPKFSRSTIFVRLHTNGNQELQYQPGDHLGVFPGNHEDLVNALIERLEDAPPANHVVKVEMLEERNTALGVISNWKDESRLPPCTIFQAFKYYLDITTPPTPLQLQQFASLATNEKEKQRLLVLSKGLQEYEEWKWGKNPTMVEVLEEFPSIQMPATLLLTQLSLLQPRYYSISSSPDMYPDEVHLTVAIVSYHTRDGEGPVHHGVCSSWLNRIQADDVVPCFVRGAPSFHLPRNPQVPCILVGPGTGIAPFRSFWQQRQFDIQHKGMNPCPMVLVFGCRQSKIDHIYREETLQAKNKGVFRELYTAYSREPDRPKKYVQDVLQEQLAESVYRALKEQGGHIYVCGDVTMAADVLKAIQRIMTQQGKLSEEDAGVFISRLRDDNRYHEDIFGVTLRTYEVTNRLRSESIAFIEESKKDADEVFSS
Chain of Estrogen receptor beta (Q92731 whole entry): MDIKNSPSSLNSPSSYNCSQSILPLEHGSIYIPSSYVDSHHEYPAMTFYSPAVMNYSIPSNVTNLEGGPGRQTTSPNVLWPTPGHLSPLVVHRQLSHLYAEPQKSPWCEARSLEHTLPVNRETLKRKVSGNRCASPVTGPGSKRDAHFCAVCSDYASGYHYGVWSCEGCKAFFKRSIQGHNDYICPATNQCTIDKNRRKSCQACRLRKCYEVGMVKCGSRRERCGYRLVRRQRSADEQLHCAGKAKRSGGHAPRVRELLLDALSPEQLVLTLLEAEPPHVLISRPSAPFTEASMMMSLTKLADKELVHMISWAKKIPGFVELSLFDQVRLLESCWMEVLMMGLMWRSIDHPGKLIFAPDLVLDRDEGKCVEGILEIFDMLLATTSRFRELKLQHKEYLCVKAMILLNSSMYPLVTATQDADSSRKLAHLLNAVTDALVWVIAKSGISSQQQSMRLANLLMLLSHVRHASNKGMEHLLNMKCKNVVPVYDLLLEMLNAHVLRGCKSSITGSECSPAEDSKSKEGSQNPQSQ
Chain of Voltage-gated inwardly rectifying potassium channel KCNH2 (Q12809 whole entry): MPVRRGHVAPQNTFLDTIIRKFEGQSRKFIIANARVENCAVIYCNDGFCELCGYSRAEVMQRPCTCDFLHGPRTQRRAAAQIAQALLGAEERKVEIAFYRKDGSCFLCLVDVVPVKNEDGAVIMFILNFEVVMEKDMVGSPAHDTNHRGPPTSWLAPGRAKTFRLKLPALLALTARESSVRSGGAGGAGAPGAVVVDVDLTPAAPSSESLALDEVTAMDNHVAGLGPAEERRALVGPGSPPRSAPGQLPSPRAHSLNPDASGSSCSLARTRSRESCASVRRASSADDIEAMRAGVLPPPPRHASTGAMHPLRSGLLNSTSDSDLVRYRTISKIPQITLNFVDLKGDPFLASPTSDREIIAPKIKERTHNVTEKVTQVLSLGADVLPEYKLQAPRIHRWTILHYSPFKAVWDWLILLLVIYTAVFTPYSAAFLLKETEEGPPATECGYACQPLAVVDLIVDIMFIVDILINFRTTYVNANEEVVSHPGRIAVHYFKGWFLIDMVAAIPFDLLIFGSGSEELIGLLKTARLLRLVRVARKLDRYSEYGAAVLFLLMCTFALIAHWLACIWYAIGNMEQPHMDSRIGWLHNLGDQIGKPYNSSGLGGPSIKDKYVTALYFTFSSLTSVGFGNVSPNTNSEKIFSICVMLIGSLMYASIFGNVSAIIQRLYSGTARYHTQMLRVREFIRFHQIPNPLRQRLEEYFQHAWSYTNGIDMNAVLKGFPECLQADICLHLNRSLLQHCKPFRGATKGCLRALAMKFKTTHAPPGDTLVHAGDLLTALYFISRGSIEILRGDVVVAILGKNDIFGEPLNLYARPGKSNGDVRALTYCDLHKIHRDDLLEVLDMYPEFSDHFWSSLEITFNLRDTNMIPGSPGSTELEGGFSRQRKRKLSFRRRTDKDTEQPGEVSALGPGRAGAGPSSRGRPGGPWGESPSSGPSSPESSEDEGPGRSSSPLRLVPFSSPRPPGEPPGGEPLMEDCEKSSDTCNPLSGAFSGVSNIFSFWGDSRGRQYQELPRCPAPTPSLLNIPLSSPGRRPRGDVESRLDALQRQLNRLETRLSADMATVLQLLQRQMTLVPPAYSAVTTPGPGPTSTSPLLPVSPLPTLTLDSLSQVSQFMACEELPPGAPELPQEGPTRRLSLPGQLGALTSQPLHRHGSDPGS

Compound | IC50 [1] | Ki [1] | IC50 [2] | Ki [2] | IC50 [3] | IC50 [4] | IC50 [5] | IC50 [6] | IC50 [7] | Ki [7] | IC50 [8] | Ki [8] | IC50 [9] | IC50 [10] | Ki [10] | IC50 [11] | Ki [11] | IC50 [12] | Ki [12] | IC50 [13] | other results
CC1CN(c2cc3c(cc2F)c(=O)c(C(=O)O)cn3-c2ccc(F)cc2F)CCN1 (stereo unspecified) [TEMAFLOXACIN] | Not Active | Not Active | Not Active | Not Active | Not Active | Not Active | Not Active | Not Active | Not Active | Not Active | Not Active | Not Active | Not Active | Not Active | Not Active | Not Active | Not Active | Not Active | Not Active | Not Active | IC50 [14]: Not Active
CC(C)[C@H](N)C(=O)OCCOCn1cnc2c(=O)nc(N)[nH]c21 [VALACYCLOVIR] | Not Active | Not Active | Not Active | Not Active | Not Active | Not Active | Not Active | Not Active | Not Active | Not Active | Not Active | Not Active | Not Active | Not Active | Not Active | Not Active | Not Active | Not Active | Not Active | Not Active | IC50 [14]: Not Active
CN[C@H](CC(C)C)C(=O)N[C@H]1C(=O)N[C@@H](CC(N)=O)C(=O)N[C@H]2C(=O)N[C@H]3C(=O)N[C@H](C(=O)N[C@H](C(=O)O)c4cc(O)cc(O)c4-c4cc3ccc4O)[C@H](O)c3ccc(c(Cl)c3)Oc3cc2cc(c3O[C@@H]2O[C@H](CO)[C@@H](O)[C@H](O)[C@H]2O[C@H]2C[C@](C)(N)[C@H](O)[C@H](C)O2)Oc2ccc(cc2Cl)[C@H]1O [VANCOMYCIN] | Not Active | Not Active | Not Active | Not Active | Not Active | Not Active | Not Active | Not Active | Not Active | Not Active | Not Active | Not Active | Not Active | Not Active | Not Active | Not Active | Not Active | Not Active | Not Active | Not Active | IC50 [14]: Not Active
IVERMECTIN | Not Active | Not Active | Not Active | Not Active | Not Active | Not Active |  | Not Active | Not Active | Not Active | Not Active | Not Active | Not Active | Not Active | Not Active | Not Active | Not Active | Not Active | Not Active | Not Active | Ki [3]: Not Active; Ki [4]: Not Active; IC50 ([5]; read-out: IC50): 3.61 µM; Ki ([5]; read-out: Ki): 2.59 µM; Ki [6]: Not Active; Ki [9]: Not Active; Ki [13]: Not Active; IC50 ([14]; read-out: IC50): 3.95 µM; Ki ([14]; read-out: Ki): 3.91 µM
